From US12279621B1, “Insect neuropeptides 3” (Solasta Bio Limited, priority 2023, dated 2025) come the findings set out here.

This experiment deals with Spodoptera frugiperda. As to the kind of experiment: Lepidoptera artificial diet assay. Conditions: unformulated peptide, final concentration 1×10^−4 M in diet, one L1 larva per cell, n=10, 168 hrs; compared to negative control vehicle and DDT. Format: in vivo. How it is done: One larva was assayed per cell. (n=10). Frontier Lepidoptera artificial diet was made up by preparing agar at 1% and then mixing it with artificial diet powder. Peptide solution was aliquoted in 10 cells and diet poured straight onto it. The final concentration of the peptide was 1×10^−4 M, and each peptide was aliquoted in 10 cells. Once the diet solidified and cooled down, one L1 larvae was infested in each cell. The trays were sealed with heat and let larva were allowed to develop for 168 hrs. Finally, pupation and mortality were scored for. Lepidoptera artificial diet assays were performed with SB-P-80, and compared to a negative control vehicle and the insecticide dichlorodiphenyltrichloroethane (DDT).

On to “[Hy]-NADEDQQQSVDFTPRL-[NH2] (H-NADEDQQQSVDFTPRL-NH2) [SB-P-80, pyrokinin peptide according to the invention]”, for which the “activity (pupation and mortality scored) in lepidoptera artificial diet assay” value is listed as “much higher activity”.
